No end group written: not given here.
Legend:
[1] = biological target: T1, human estrogen receptor αLBD (Homo sapiens, UniProt P03372); experiment: FRET probe (CFP-SRC-1 LXXLL-linker-ER αLBD-YFP) for estrogen receptor agonist/antagonist in living CHO-K1 cells; format: cell-based
T1 construct: expressed in transfected cells; host or cells: CHO-K1 (Chinese hamster ovary), pcDNA3.1(+)
T1 sequence (P03372 with tags, fused parts or gaps L306P/I326L/L327I/T334S/V368G/T371N/T483N/Q502R/S527N): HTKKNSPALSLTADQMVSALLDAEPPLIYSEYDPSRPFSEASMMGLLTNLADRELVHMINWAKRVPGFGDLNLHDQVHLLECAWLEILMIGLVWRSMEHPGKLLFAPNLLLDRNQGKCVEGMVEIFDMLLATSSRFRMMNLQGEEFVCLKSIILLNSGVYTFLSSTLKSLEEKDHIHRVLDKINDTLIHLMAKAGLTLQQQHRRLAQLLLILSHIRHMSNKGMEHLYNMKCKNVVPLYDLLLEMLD
Method: (§1) Each cell was cultured in Ham's F-12 medium supplemented with 10% fetal calf serum (FCS)b and Dulbecco's modified eagle medium supplemented with 10% FCS, 1.0 mM sodium pyruvate and 0.1 mM nonessential amino acids respectively at 37° C. in a humidified atmosphere 5% CO2. Cells were transfected with an expression vector pcDNA3.1(+) containing a probe in the presence of lipofectAMINE 2000 reagent in glass bottom dishes.
(§2) The cells were Chinese hamster ovary (CHO-K1) cells for a probe for detecting an agonist or an antagonist to an estrogen receptor or a peroxisome growth factor-activating receptor, and pig kidney (PK-15) cells for a probe for detecting an agonist or an antagonist to an androgen receptor.
(§3) Before imageing, the culture medium was replaced with Hanks' balanced salt solution.
(§4) The exposure time at 440±10 nm excitation was 100 ms.
The ED50 values were converted to relative recruitment ability (RRA; Non-Patent Document 34) to compare the relative abilities of the tested compounds to promote the recruitment of the binding-responsive site to the ligand-recognition site. The RRA were calculated using the following equation.

PPAR γ-LBD = biological target: T2, PPAR γ-LBD (Homo sapiens, UniProt P37231); experiment: FRET probe for peroxisome proliferator-activated receptor agonist/antagonist in living CHO-K1 cells; format: cell-based; details: 10 μM
T2 construct: expressed in transfected cells; host or cells: CHO-K1, pcDNA3.1(+)
T2 sequence (P37231 235-505): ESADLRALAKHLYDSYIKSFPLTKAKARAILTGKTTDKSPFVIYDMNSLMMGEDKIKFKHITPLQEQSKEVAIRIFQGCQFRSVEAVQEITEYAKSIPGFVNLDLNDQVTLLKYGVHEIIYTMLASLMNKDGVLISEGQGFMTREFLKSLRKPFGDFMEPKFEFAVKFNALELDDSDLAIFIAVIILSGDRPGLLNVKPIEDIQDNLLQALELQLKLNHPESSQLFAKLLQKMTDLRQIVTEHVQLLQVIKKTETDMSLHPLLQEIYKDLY
Method: According to nearly the same procedure as in the case of the above (A), a plasmid was constructed.
as §1, §2, §3, §4

[2] = biological target: T3, human androgen receptor LBD (Homo sapiens, UniProt P10275); experiment: FRET probe for androgen receptor agonist/antagonist in living PK-15 cells; format: cell-based
T3 construct: expressed in transfected cells; host or cells: PK-15 (pig kidney), pcDNA3.1(+)
T3 sequence (P10275 674-912): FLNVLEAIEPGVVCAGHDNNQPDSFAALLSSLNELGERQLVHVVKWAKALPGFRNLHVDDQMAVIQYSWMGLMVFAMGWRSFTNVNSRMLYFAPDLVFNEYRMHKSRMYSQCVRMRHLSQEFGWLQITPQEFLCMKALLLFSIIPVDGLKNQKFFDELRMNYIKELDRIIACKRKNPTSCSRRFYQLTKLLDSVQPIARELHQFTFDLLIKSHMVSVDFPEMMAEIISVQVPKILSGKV
Method: According to nearly the same procedure as in the cases of the above (A) and (B), a plasmid was constructed.
as §1, §2, §3, §4

[3] = biological target: T4, human estrogen receptor α ligand-binding domain (305-550aa) (human, UniProt P03372 305-550); experiment: intramolecular CFP/YFP FRET in living cells, 100 nM E2
T4 construct: also called ER α-LBD; ER αLBD
T4 sequence (looked up): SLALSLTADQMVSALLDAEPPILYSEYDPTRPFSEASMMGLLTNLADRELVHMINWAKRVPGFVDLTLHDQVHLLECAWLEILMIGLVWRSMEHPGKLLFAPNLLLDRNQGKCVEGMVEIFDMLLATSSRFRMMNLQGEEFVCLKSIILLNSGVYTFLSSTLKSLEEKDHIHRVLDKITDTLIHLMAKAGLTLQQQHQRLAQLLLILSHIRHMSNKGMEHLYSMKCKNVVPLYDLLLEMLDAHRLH

[4] = biological target: T5, human androgen receptor ligand-binding domain (672-910aa) (human, UniProt O97775 665-903 (Pan troglodytes entry)); experiment: intramolecular CFP/YFP FRET in living cells, 100 nM DHT
T5 construct: also called AR-LBD; ligand-recognition site
T5 sequence: T3 sequence (P10275 674-912)

[5] = biological target: T4, human estrogen receptor α …; experiment: cell-based or functional assay
[6] = biological target: T6, peroxisome growth factor-activating receptor γ ligand-binding domain (235-505aa) (Homo sapiens (Human), UniProt P37231 235-505); experiment: intramolecular CFP/YFP FRET of the probe in CHO-K1 cells, 10 µM 15d-PGJ2
T6 construct: also called PPAR γ-LBD
T6 sequence: T2 sequence (P37231 235-505)
Method: CHO-K1 cells expressing the probe (FIG. 2B) were stimulated by 10 μM 15d-PGJ₂ and the event was observed by following time course fo the changes in FRET.

## nonylphenol [NP]
[1]; RRA=(conc. E2 [50% response]/conc. EDC [50% response])×100, E2 set at 100
  relative recruitment ability (RRA): 3.0
[1]; read-out: EC50 (concentration inducing 50% response of LXXLL motif recruitment to ER αLBD), CHO-K1 cells expressing the probe, from response curves of FIG. 5A, tested 1.0×10^−4 to 1.0×10^−11 M
  EC50: 260 nM

## 4-hydroxytamoxifen [OHT]
[1]
  change in FRET response: no increase in the FRET

## CC(C)(c1ccc(OCC2CO2)cc1)c1ccc(OCC2CO2)cc1 (stereo not drawn) [BADGE, bisphenol A diglycidyl ether]
PPAR γ-LBD; FIG. 7
  change in emission ratio (FRET response): no significant change in the emission ratio

## C[C@]12CCC(=O)C=C1CC[C@@H]1[C@@H]2[C@@H](O)C[C@@]2(C)[C@H]1CC[C@]2(O)C(=O)CO [cortisol]
[2]; PK-15 cells, 1.0×10^−4 to 1.0×10^−11 M, FIG. 5B
  FRET response over tested concentration range: did not show the response at any tested concentration

## CCCCC/C=C/C=C1/C(=O)C=C[C@@H]1C/C=C\CCCC(=O)O [15d-PGJ2, 15-deoxy-Δ^12,14-prostaglandin J2]
PPAR γ-LBD; FIG. 4B-a
  change in CFP/YFP emission ratio (480/535 nm): decrease in CFP/YFP emission ratio (480/535 nm) (increase in FRET)
  time for emission ratio decrease to reach plateau: ≤ 1000 s

## CC12CC1(C)C(=O)N(c1cc(Cl)cc(Cl)c1)C2=O (stereo not drawn) [procymidone]
[2]; 100 nM alone, PK-15, FIG. 8
  change in FRET response, antagonist alone: no significant increase in the FRET
[2]; DHT 1.0, 10, 100 nM + 10 μM antagonist, PK-15, FIG. 8
  FRET response with DHT plus antagonist: the FRET level increased in a dose dependent manner of DHT

## HKIAHRAAQEG (also called mutant LXXLL motif)
[3]
  binding result: no binding
[4]
  binding result: no binding

B1: steroid receptor coactivator 1 NR box II (687-697aa) coactivator peptide (peptide)
peptide: HKILHRLLQEG
modifications: also: segment of CFP–NR box–GGNGG-type linker–LBD–YFP fusion probe
notes: Not tested as a free peptide; also called SRC-1 NR box II
[5]
  EC50 of the small-molecule ligand DES for the FRET response of the probe (CHO-K1 cells): 13 nM
  EC50 of the small-molecule ligand E2 for the FRET response of the probe (CHO-K1 cells): 8 nM
  EC50 of the small-molecule ligand NP for the FRET response of the probe (CHO-K1 cells): 260 nM
[6]
  binding result: binds

From patent publication US20090113563A1, “Probe for detecting nuclear receptor agonist or antagonist and method for screening agonist or antagonist to nuclear receptor with the use of the same” (priority 2004, published 2009)
